Experiment [1] concerns the target human GLP-1 receptor (hGLP-1R) (Homo sapiens, UniProt P43220). Nature of the experiment: cAMP production (HTRF) in CHO cells expressing hGLP-1R. The experiment is classed as cell-based. The arrangement: expressed in transfected cells. Particulars: for EC50: Table 6, peptides modified at position 17, cAMP in CHO hGLP-1R cells, geometric mean, read-out: hGLP-1R EC50; for % Relative Potency Ratio: Table 6, % GLP-1R activity relative to GLP-1 / % GlucR activity relative to glucagon. In outline:
(§1)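 Potency values represent EC50 from 4-parameter logistic curves of HTRF % Delta F signal. Receptor-expressing CHO cells (hGCGR 2×10^5 cells/mL, hGLP-1R 1×10^5 cells/mL) were exposed for 30 min at room temperature before two-step cAMP detection.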
(In general: Cyclic AMP is a second messenger, typically raised through Gs and lowered through Gi signalling.)

Experiment [2] deals with human glucagon receptor (hGCGR) (Homo sapiens, UniProt P47871). The experiment in a line: cAMP production (HTRF) in CHO cells expressing hGCGR. The experiment is classed as cell-based. On the set-up: expressed in transfected cells. Conditions: Table 6, peptides modified at position 17; cAMP in CHO hGCGR cells; geometric mean; read-out: hGluc-R EC50. In outline:
as §1

Structures are written as SMILES. Starred links: 1 amine or outer side, 2 acyl side, 3 side chain; linkers in the order of their positions; H or OH if unused. Non-standard residues stand in square brackets, D forms with d. Residues, ends and D or L forms follow the SMILES beside them. Groups on a side chain read outwards from the residue. *: point of attachment. C18 diacid = O=C(O)CCCCCCCCCCCCCCCCC(=O)*; Dip = N[C@H](C(=O)O)C(c1ccccc1)c1ccccc1; γGlu = O=C(O)[C@H](CCC(=O)[*:2])N[*:1]; Stearoyl = CCCCCCCCCCCCCCCCCC(=O)*; αMeF = C[C@](N)(Cc1ccccc1)C(=O)O; PEG4 = NCCOCCOCCOCCOCCC(=O)O; PEG2 = NCCOCCOCCC(=O)O; AEEA = NCCOCCOCC(=O)O; Aib = CC(C)(N)C(=O)O

Sequence of human GLP-1 receptor (hGLP-1R) (P43220 24-463): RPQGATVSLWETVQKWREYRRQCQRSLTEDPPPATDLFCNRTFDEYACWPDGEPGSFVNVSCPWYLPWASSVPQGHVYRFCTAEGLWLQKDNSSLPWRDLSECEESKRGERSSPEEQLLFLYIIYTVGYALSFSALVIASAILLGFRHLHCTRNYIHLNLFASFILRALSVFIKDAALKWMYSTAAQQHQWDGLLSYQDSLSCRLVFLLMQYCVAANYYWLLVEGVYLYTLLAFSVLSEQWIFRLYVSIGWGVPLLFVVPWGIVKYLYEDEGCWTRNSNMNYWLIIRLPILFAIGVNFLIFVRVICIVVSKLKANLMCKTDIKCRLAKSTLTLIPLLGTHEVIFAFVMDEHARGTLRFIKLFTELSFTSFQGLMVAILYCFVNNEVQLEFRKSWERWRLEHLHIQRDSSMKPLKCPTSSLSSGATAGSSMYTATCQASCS
Sequence of human glucagon receptor (hGCGR) (P47871 26-477): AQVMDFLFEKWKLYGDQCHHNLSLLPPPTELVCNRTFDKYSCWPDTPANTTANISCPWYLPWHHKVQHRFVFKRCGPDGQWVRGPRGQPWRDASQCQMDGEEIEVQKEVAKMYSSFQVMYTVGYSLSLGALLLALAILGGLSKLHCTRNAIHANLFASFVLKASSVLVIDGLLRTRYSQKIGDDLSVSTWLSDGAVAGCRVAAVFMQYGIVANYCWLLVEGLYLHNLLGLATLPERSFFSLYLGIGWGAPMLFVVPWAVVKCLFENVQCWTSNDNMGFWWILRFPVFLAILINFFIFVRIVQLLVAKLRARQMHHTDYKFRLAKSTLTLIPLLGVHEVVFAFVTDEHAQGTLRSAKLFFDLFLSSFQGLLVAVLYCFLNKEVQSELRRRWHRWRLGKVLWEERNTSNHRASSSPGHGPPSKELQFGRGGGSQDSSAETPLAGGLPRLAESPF

By EC50 is commonly meant the midpoint of the concentration-response curve. Regarding `CC(C)C[C@H](NC(=O)[C@H](Cc1c[nH]c2ccccc12)NC(=O)[C@H](CCCNC(=N)N)NC(=O)[C@@H](NC(=O)[C@H](Cc1ccccc1)NC(=O)[C@H](CC(=O)O)NC(=O)[C@H](CCC(N)=O)NC(=O)[C@H](C)NC(=O)[C@H](CCCNC(=N)N)NC(=O)[C@H](CCCCNC(=O)COCCOCCNC(=O)COCCOCCNC(=O)CC[C@H](NC(=O)CCCCCCCCCCCCCCCCC(=O)O)C(=O)O)NC(=O)[C@H](CO)NC(=O)[C@H](CC(=O)O)NC(=O)[C@H](CC(C)C)NC(=O)[C@](C)(Cc1ccccc1)NC(=O)[C@H](CCCCN)NC(=O)[C@H](CO)NC(=O)[C@@H](NC(=O)[C@H](CC(=O)O)NC(=O)[C@H](CO)NC(=O)[C@@H](NC(=O)[C@H](Cc1ccccc1)NC(=O)[C@@H](NC(=O)CNC(=O)[C@H](CCC(N)=O)NC(=O)C(C)(C)NC(=O)[C@@H](N)Cc1c[nH]cn1)[C@@H](C)O)[C@@H](C)O)C(C)C)C(C)C)C(=O)N[C@@H](CC(C)C)C(=O)NC(C)(C)C(=O)N[C@H](C(=O)N[C@@H](CCC(=O)O)C(=O)O)[C@@H](C)O` [Peptide 39] (H-H[Aib]QGTFTSDVSK[αMeF]LDSK([AEEA-AEEA-γGlu-C18 diacid])RAQDFVRWLL[Aib]TE-OH; N-terminus assumed), in experiment [1], the EC50 came to 0.0761 nM and the “% Relative Potency Ratio” value came to 5.0. Moreover, in experiment [2], the 50% effective concentration (EC50) was determined as 0.194 nM.

With `CC(C)C[C@H](NC(=O)[C@H](Cc1c[nH]c2ccccc12)NC(=O)[C@H](CCC(N)=O)NC(=O)[C@@H](NC(=O)[C@H](Cc1ccccc1)NC(=O)[C@H](CC(=O)O)NC(=O)[C@H](CCC(N)=O)NC(=O)[C@H](C)NC(=O)[C@H](CCCNC(=N)N)NC(=O)[C@H](CCCCNC(=O)COCCOCCNC(=O)COCCOCCNC(=O)CC[C@H](NC(=O)CCCCCCCCCCCCCCCCC(=O)O)C(=O)O)NC(=O)[C@H](CO)NC(=O)[C@H](CC(=O)O)NC(=O)[C@H](CC(C)C)NC(=O)[C@](C)(Cc1ccccc1)NC(=O)[C@H](CCCCN)NC(=O)[C@H](CO)NC(=O)[C@@H](NC(=O)[C@H](CC(=O)O)NC(=O)[C@H](CO)NC(=O)[C@@H](NC(=O)[C@H](Cc1ccccc1)NC(=O)[C@@H](NC(=O)CNC(=O)[C@H](CCC(N)=O)NC(=O)C(C)(C)NC(=O)[C@@H](N)Cc1c[nH]cn1)[C@@H](C)O)[C@@H](C)O)C(C)C)C(C)C)C(=O)N[C@@H](CC(C)C)C(=O)NC(C)(C)C(=O)N[C@H](C(=O)O)[C@@H](C)O` [Peptide 40] (H-H[Aib]QGTFTSDVSK[αMeF]LDSK([AEEA-AEEA-γGlu-C18 diacid])RAQDFVQWLL[Aib]T-OH; N-terminus assumed), the results for the 50% effective concentration (EC50) in experiment [1] and in experiment [2] were 0.0299 nM and 0.123 nM, respectively. Also, the “% Relative Potency Ratio” value in experiment [1] came out at 8.2.

As for `CC(C)C[C@H](NC(=O)[C@H](Cc1c[nH]c2ccccc12)NC(=O)[C@H](CCC(N)=O)NC(=O)[C@@H](NC(=O)[C@H](Cc1ccccc1)NC(=O)[C@H](CC(=O)O)NC(=O)[C@H](CCC(N)=O)NC(=O)[C@H](C)NC(=O)[C@H](CCCNC(=N)N)NC(=O)[C@H](CCCCNC(=O)COCCOCCNC(=O)COCCOCCNC(=O)CC[C@H](NC(=O)CCCCCCCCCCCCCCCCC(=O)O)C(=O)O)NC(=O)[C@H](CO)NC(=O)[C@H](CC(=O)O)NC(=O)[C@H](CC(C)C)NC(=O)[C@](C)(Cc1ccccc1)NC(=O)[C@H](CCCCN)NC(=O)[C@H](CO)NC(=O)[C@H](Cc1ccc(O)cc1)NC(=O)[C@H](CC(=O)O)NC(=O)[C@H](CO)NC(=O)[C@@H](NC(=O)[C@H](Cc1ccccc1)NC(=O)[C@@H](NC(=O)CNC(=O)[C@H](CCC(N)=O)NC(=O)C(C)(C)NC(=O)[C@@H](N)Cc1c[nH]cn1)[C@@H](C)O)[C@@H](C)O)C(C)C)C(=O)N[C@H](C(=O)NCCOCCOCCOCCOCCC(N)=O)C(C)C` [Peptide 41] (H-H[Aib]QGTFTSDYSK[αMeF]LDSK([AEEA-AEEA-γGlu-C18 diacid])RAQDFVQWLV[PEG4]-NH2; N-terminus assumed), the EC50 worked out at 0.663 nM in experiment [1] and 5.74 nM in experiment [2]. Further, the “% Relative Potency Ratio” value in experiment [1] came to 17.1.

As to `CC(C)C[C@H](NC(=O)C(C)(C)NC(=O)[C@H](CCC(N)=O)NC(=O)[C@@H](NC(=O)[C@H](Cc1ccccc1)NC(=O)[C@H](CC(=O)O)NC(=O)[C@H](CCC(N)=O)NC(=O)[C@H](C)NC(=O)[C@H](CCCNC(=N)N)NC(=O)[C@H](CCCCNC(=O)COCCOCCNC(=O)COCCOCCNC(=O)CC[C@H](NC(=O)CCCCCCCCCCCCCCCCC(=O)O)C(=O)O)NC(=O)[C@H](CO)NC(=O)[C@H](CC(=O)O)NC(=O)[C@H](CC(C)C)NC(=O)[C@](C)(Cc1ccccc1)NC(=O)[C@H](CCCCN)NC(=O)[C@H](CO)NC(=O)[C@@H](NC(=O)[C@H](CC(=O)O)NC(=O)[C@H](CO)NC(=O)[C@@H](NC(=O)[C@H](Cc1ccccc1)NC(=O)[C@@H](NC(=O)CNC(=O)[C@H](CCC(N)=O)NC(=O)C(C)(C)NC(=O)[C@@H](N)Cc1c[nH]cn1)[C@@H](C)O)[C@@H](C)O)C(C)C)C(C)C)C(=O)N[C@H](C(=O)N[C@@H](C)C(=O)N[C@H](C(=O)O)[C@@H](C)O)C(C)C` [Peptide 42] (H-H[Aib]QGTFTSDVSK[αMeF]LDSK([AEEA-AEEA-γGlu-C18 diacid])RAQDFVQ[Aib]LVAT-OH; N-terminus assumed), in experiment [1], the 50% effective concentration (EC50) amounted to 0.665 nM and the “% Relative Potency Ratio” value was 24.4. Moreover, in experiment [2], the EC50 worked out at 8.19 nM.

Consider `CCCCCCCCCCCCCCCCCC(=O)N[C@@H](CCC(=O)N[C@@H](CCC(=O)NCCOCCOCCC(=O)NCCOCCOCCC(=O)NCCCC[C@H](NC(=O)[C@H](CO)NC(=O)[C@H](CC(=O)O)NC(=O)[C@H](CC(C)C)NC(=O)[C@@H](NC(=O)[C@H](CCCCN)NC(=O)[C@H](CO)NC(=O)[C@@H](NC(=O)[C@H](CC(=O)O)NC(=O)[C@H](CO)NC(=O)[C@@H](NC(=O)[C@](C)(Cc1ccccc1)NC(=O)[C@H](CO)NC(=O)CNC(=O)[C@H](CCC(N)=O)NC(=O)[C@H](CO)NC(=O)[C@@H](N)Cc1c[nH]cn1)[C@@H](C)O)C(C)C)C(c1ccccc1)c1ccccc1)C(=O)N[C@@H](C)C(=O)N[C@@H](C)C(=O)N[C@@H](CCC(N)=O)C(=O)N[C@@H](CC(=O)O)C(=O)N[C@@](C)(Cc1ccccc1)C(=O)N[C@H](C(=O)N[C@@H](CCC(N)=O)C(=O)NC(C)(C)C(=O)N[C@H](C(=O)N[C@@H](C)C(=O)N[C@@H](CC(N)=O)C(N)=O)[C@@H](C)CC)C(C)C)C(=O)O)C(=O)O` [Peptide 54] (H-HSQGS[αMeF]TSDVSK[Dip]LDSK([PEG2-PEG2-γGlu-γGlu-Stearoyl])AAQD[αMeF]VQ[Aib]IAN-NH2; N-terminus assumed), for which, in experiment [1], the EC50 was 0.00281 nM and the “% Relative Potency Ratio” value was 1.8. Further, in experiment [2], the EC50 came out at 0.00259 nM.

These data come from patent US20250353891A1 (MEDIMMUNE LIMITED, priority 2022, published 2025).
